# Reference: publication PMC9399069, “Imaging PARP with [^18F]rucaparib in pancreatic cancer models” (European Journal of Nuclear Medicine and Molecular Imaging, 2022)
# What was measured:
# breast cancer xenografts = system: breast cancer xenografts; design: method as in PMID 27841728, PMID 27069769; settings: 1 h post-injection; cited from earlier work
# [1] = design: method as in PMID 25895168, PMID 26337803, PMID 27689533; settings: relatively low tumour uptake; cited from earlier work
# AsPC1 cells [2] = test: Cell retention of [18F]rucaparib and [18F]olaparib in AsPC1 cells; format: cell-based, human; settings: for Efflux: fraction exiting cells: in the first 10–30 min, biphasic efflux
# Experimental: (§1) AsPC1 (1 × 10^5 cells/well) and PSN1 cells (7.5 × 10^4 cells/well) were exposed to [^18F]rucaparib (100 kBq, 4.8 GBq/μmol; [^TotalF]rucaparib final concentration: 258 nM) or [^18F]olaparib (400 kBq, 2.8 GBq/μmol: [^TotalF]olaparib final concentration: 242 nM) in 24-well plates at 37 °C for 30 min. Cell culture medium was removed, and cells were washed with PBS, followed by the addition of fresh medium (300 μL). Cells were then further incubated at 37 °C. Cell culture medium was removed, and cells were washed with PBS at different times (0–3 h). Cells were lysed using RIPA buffer for 15 min at room temperature, and the amount of ^18F in the cell lysates was measured as above.
# PSN1 cells [3] = test: Cell retention of [18F]rucaparib and [18F]olaparib in PSN1 cells; format: cell-based, human; settings: for Efflux: fraction exiting cells: in the first 10–30 min, biphasic efflux
# Experimental: as §1
# PSN1 xenografts = test: Autoradiography of PSN1 tumour sections; format: in vivo, Balb/c nu/nu mice; settings: unlabelled drug 0.5 mg co-administered
# Experimental: Ex vivo localisation of [^18F]rucaparib in PSN1 xenografts was determined using autoradiography of tumour sections (10 μm). Uptake in the same tumour sections was compared to immunohistochemistry staining for PARP1, 2 and 3. Full details of procedures and protocols are provided in Supplemental Information.
# PSN1 xenograft tissues were harvested and immediately flash-frozen using liquid nitrogen, and sectioned (10 µm) using a Leica CM1950 cryostat. Tissue sections were thaw-mounted onto Superfrost PLUS glass microscope slides (Menzel-Glaser, Thermo Scientific) and allowed to dry briefly at room temperature (RT). The slides were then fixed in 10% neutral buffered formalin […] (NBF) for 10 min at RT, dried, and exposed to a storage phosphor screen (PerkinElmer, Super Resolution, 12.5 x 25.2 cm) in a standard X-ray cassette for 15 h at 4 °C. The phosphor screen was then imaged using a Cyclone® Plus Storage Phosphor System (PerkinElmer).
# AsPC1 cells [4] = test: Protein expression by flow cytometry after PARP inhibitors or DNA-damaging reagents, AsPC1 cells; format: cell-based, human; settings: 10 μM, 3 h, flow cytometry
# Experimental: (§2) Relative expression of PARP1, 2 and 3, ALDH2 and IMPDH2 was determined by flow cytometry. Cells (1 × 10^6 cells/well) were seeded in 96-well plates in growth medium, washed with FACS buffer (PBS, 2% FBS, 1 mM EDTA, 0.1% NaN3) and centrifuged at 500×g for 5 min. Immunostaining was performed using the Foxp3/transcription factor staining buffer set (eBioscience^TM, USA). Intracellular staining was conducted in permeabilisation buffer for 30 min at 4 °C in the dark using the following antibodies: AF488-conjugated anti-PARP-1 (1:100; sc-80070), AF594-conjugated anti-PARP-2 (1:100; sc-393310), anti-PARP-3 (1:100; sc-390771) or anti-PARP-tankyrase-1/2 (1:100; sc-365897) from Santa Cruz Biotechnology Inc. (USA), AF488-conjugated anti-IMPDH2 (1:500; ab-200770) from Abcam plc. (UK) and AF488-conjugated anti-ALDH2 (1:100, ABIN6817568) from Antibodies-online GmbH (UK). Fixable viability dye ef780 (1:4000; eBioscience^TM; 65-0865-14) was used for live and dead cells discrimination. Fixation of immunostained cells was performed for 15 min at room temperature. Flow cytometry was conducted on the CytoFLEX benchtop flow cytometer (Beckman Coulter, USA), with appropriate lasers and filters, positive and negative controls. Data were analysed using FlowJo^TM (Tree Star Inc., BD Biosciences, USA).
# (§3) AsPC1 (1 × 10^5 cells/well) and PSN1 cells (7.5 × 10^4 cells/well) were exposed to methyl methanesulfonate (MMS) or temozolomide (TMZ) (100 μM, in a total of 270 μL growth medium) for 3 h at 37 °C. Additionally, [^18F]rucaparib (500 kBq, 3.6 GBq/μmol; [^TotalF]rucaparib final concentration: 301 nM) or [^18F]olaparib (400 kBq, 8.5 GBq/μmol; [^TotalF]olaparib final concentration: 300 nM) was added, and the cells were incubated at 37 °C for 30 min. Cell culture medium was removed, and cells were washed with PBS. For cell retention, fresh medium (300 μL) was added to the cells. Cells were then further incubated at 37°C for 3 h. Cell culture medium was removed, and the amount of ^18F in the cell lysates was measured as above. Protein expression of the cells after DNA-damaging treatments (or PARP inhibitors 10 μM) was performed using flow cytometry as above.
# PSN1 cells [5] = test: Protein expression by flow cytometry after PARP inhibitors or DNA-damaging reagents, PSN1 cells; format: cell-based, human; settings: 10 μM, 3 h, flow cytometry
# Experimental: as §2, §3
# SW620 cells = system: SW620 cells; design: method as in PMID 24556618; settings: cited from earlier work
# [6] = design: method as in PMID 24216281, PMID 26438157; settings: 10 mg/kg, administered orally or intraperitoneally; cited from earlier work
# pancreatic cancer = settings: phase II, pancreatic cancer patients with BRCA1/2 and PALB2 variants; cited from earlier work
structure (smiles),measurement,setting,value
O=C1NCCn2c(-c3ccc(OCC[18F])cc3)nc3cccc1c32 [[^18F]FTT],Tumour-to-muscle (T/M) ratio,breast cancer xenografts,1.2–1.9
CC1=CC(C)=[N+]2C1=Cc1ccc(CCC(=O)N3CCN(C(=O)c4cc(Cc5n[nH]c(=O)c6ccccc56)ccc4F)CC3)n1[B-]2(F)[18F] (stereo not drawn) [[^18F]PARPi-FL],Tumour uptake,[1],< 1 %ID/g
O=C(c1cc(Cc2n[nH]c(=O)c3ccccc23)ccc1F)N1CCN(C(=O)C2CC2)CC1 [olaparib],Efflux: fraction exiting cells,AsPC1 cells [2],more than 50%
same,Efflux: fraction exiting cells,PSN1 cells [3],more than 50%
same,18F signal of [18F]rucaparib in tumour sections from treated tumours,PSN1 xenografts,significantly reduced
CNCc1ccc(-c2[nH]c3cc(F)cc4c3c2CCNC4=O)cc1 [rucaparib],Weighted cellular efflux half-life,AsPC1 cells [2],49.9 ± 6.8 min
same,Efflux: fraction exiting cells,AsPC1 cells [2],more than 50%
same,Weighted cellular efflux half-life,PSN1 cells [3],43.9 ± 3.2 min
same,Efflux: fraction exiting cells,PSN1 cells [3],more than 50%
same,PARP1 expression (MFI) after exposure of PARP inhibitors,AsPC1 cells [4],upregulated
same,PARP1 expression (MFI) after exposure of PARP inhibitors,PSN1 cells [5],upregulated
same,18F signal of [18F]rucaparib in tumour sections from treated tumours,PSN1 xenografts,significantly reduced
same,Cellular efflux half-life,SW620 cells,20 min
same,Blood half-life,[6],84 to 90 min
same,Fraction of patients who benefited from treatment,pancreatic cancer,two-thirds
